The numbers were not newly measured in PMC7327225 (Hepatology Communications, 2020), which cites them from elsewhere.

For this data set, the system named is β1‐containing AMPK trimers. Particulars: explains failure to activate AMPK in muscle.

As to `O=C(O)c1c[nH]c2cc(Cl)c(-c3ccc(C4(O)CCC4)cc3)cc12` [PF‐06409577], the AMPK isoform selectivity entry is given as “selectivity toward β1‐containing AMPK trimers”.
